These results are taken from the NIST ThermoML archive (doi:10.1016/j.fluid.2007.10.016).

Numbers after ± are expanded uncertainties.

The term refractive index denotes the speed of light in vacuum divided by its phase velocity in the sample. A word on the mass density: it is the mass of a sample divided by its volume. As usually defined, the vapor or sublimation pressure is the pressure of vapour in equilibrium with the condensed phase.

A short description of one data set: refractive index (Na D-line) (dimensionless). As to conditions: 298.15 K; 101.33 kPa; Liquid; Standard Abbe refractometry.
Turning to `CC(C)CC(C)(C)C` [2,2,4-trimethylpentane], the refractive index was 1.38894 ± 0.00072.
Same read-out and setting: the result for `CC(=O)C(C)C` [3-methyl-2-butanone] reads 1.3862 ± 0.00072; that for `CC(C)O` [propan-2-ol], 1.37504 ± 0.00072.

Test in the next data set: not given
The following applies: 298.15 K; 101.33 kPa; Liquid.
On to `CC(C)CC(C)(C)C` [2,2,4-trimethylpentane], for which the mass density is 687.79 ± 0.41 kg/m3.
Same read-out and setting: next, `CC(=O)C(C)C` [3-methyl-2-butanone]: 799.55 ± 0.45 kg/m3.
Take `CC(C)O` [propan-2-ol]: the mass density is listed as 780.91 ± 0.31 kg/m3.

The data set is the same for the next values; noted with them: 330 K; Liquid; Ebulliometric method (Recirculating still).
Turning to `CC(C)CC(C)(C)C` [2,2,4-trimethylpentane], the “vapor or sublimation pressure” value was determined as 25.47 ± 0.14 kPa.
Same read-out and setting: next, `CC(=O)C(C)C` [3-methyl-2-butanone]: 27.69 ± 0.16 kPa.
Still for that read-out and setting: next, `CC(C)O` [propan-2-ol]: 33.25 ± 0.19 kPa.

The same data set, now with this note: 340 K; Liquid; Ebulliometric method (Recirculating still).
For `CC(C)CC(C)(C)C` [2,2,4-trimethylpentane], the “vapor or sublimation pressure” value was 36.64 ± 0.19 kPa.
Consider `CC(=O)C(C)C` [3-methyl-2-butanone], for which the “vapor or sublimation pressure” value was 40.45 ± 0.2 kPa.
Same read-out and setting: next, `CC(C)O` [propan-2-ol]: 52.97 ± 0.26 kPa.
